Experimental data reported in patent US20030181527A1, “Novel formulations of alpha-2,4-disulfophenyl-n-tert-butylnitrone” (priority 2000, published 2003).

Assays:
Experiment in all cases: Antimicrobial efficacy (European Pharmacopoeia 2000, Chapter 5.1.3)
Assay type in all cases: cell-based
[1] = tested on: C. albicans; details: 400 mg/ml
Experimental: (§1) The antimicrobial efficacy was tested for three different solutions:
(§2) i) α-(2,4-disulfophenyl)-N-tert-butylnitrone disodium salt, 10 mg/ml;
(§3) ii) α-(2,4-disulfophenyl)-N-tert-butylnitrone disodium salt, 400 mg/ml; and
(§4) iii) a carbonate buffer control.
(§5) The tests were performed according to European Pharmacopoeia 2000, Chapter 5.1.3, pages 259 to 260. Seven 10 ml vials were inoculated, one per test organism. During the tests, the vials were stored at controlled room temperature and protected from light. At different time intervals, samples were withdrawn and after appropriate dilutions the numbers of viable microorganisms (colony forming units per ml, CFU/ml) were determined using standard plate count procedures.

[2] = tested on: A. niger
Experimental: as §1, §2, §3, §4, §5

[3] = tested on: Ps. aeruginosa
Experimental: as §1, §2, §3, §4, §5

[4] = tested on: Bur. cepacia
Experimental: as §1, §2, §3, §4, §5

Structure (SMILES): CC(C)(C)[N+]([O-])=Cc1ccc(S(=O)(=O)[O-])cc1S(=O)(=O)[O-].[Na+].[Na+] [α-(2,4-disulfophenyl)-N-tert-butylnitrone disodium salt]
- Number of CFUs per ml - Time after Inoculation ([1]; 14 days): <1 CFUs per ml
- Number of CFUs per ml - Time after Inoculation ([1]; 21 days): <1 CFUs per ml
- Number of CFUs per ml - Time after Inoculation ([1]; 28 days): <1 CFUs per ml
- Number of CFUs per ml - Time after Inoculation ([1]; <1 min): 1.6 × 10^5 CFUs per ml
- Number of CFUs per ml - Time after Inoculation ([2]; 10 mg/ml, 6 h): 4.5 × 10^4 CFUs per ml
- Number of CFUs per ml - Time after Inoculation ([2]; 10 mg/ml, 24 h): 5.0 × 10^4 CFUs per ml
- Number of CFUs per ml - Time after Inoculation ([2]; 10 mg/ml, 48 h): 5.5 × 10^4 CFUs per ml
- Number of CFUs per ml - Time after Inoculation ([2]; 10 mg/ml, 7 days): 3.0 × 10^4 CFUs per ml
- Number of CFUs per ml - Time after Inoculation ([2]; 10 mg/ml, 14 days): 1.0 × 10^3 CFUs per ml
- Number of CFUs per ml - Time after Inoculation ([2]; 10 mg/ml, 21 days): 1.0 × 10^2 CFUs per ml
- Number of CFUs per ml - Time after Inoculation ([2]; 10 mg/ml, 28 days): ≦10 CFUs per ml
- Number of CFUs per ml - Time after Inoculation ([2]; 10 mg/ml, <1 min): 5.0 × 10^4 CFUs per ml
- Number of CFUs per ml - Time after Inoculation ([2]; 400 mg/ml, 6 h): 5.9 × 10^4 CFUs per ml
- Number of CFUs per ml - Time after Inoculation ([2]; 400 mg/ml, 24 h): 3.4 × 10^4 CFUs per ml
- Number of CFUs per ml - Time after Inoculation ([2]; 400 mg/ml, 48 h): 1.7 × 10^4 CFUs per ml
- Number of CFUs per ml - Time after Inoculation ([2]; 400 mg/ml, 7 days): 1.9 × 10^2 CFUs per ml
- Number of CFUs per ml - Time after Inoculation ([2]; 400 mg/ml, 14 days): <1 CFUs per ml
- Number of CFUs per ml - Time after Inoculation ([2]; 400 mg/ml, 21 days): <1 CFUs per ml
- Number of CFUs per ml - Time after Inoculation ([2]; 400 mg/ml, 28 days): <1 CFUs per ml
- Number of CFUs per ml - Time after Inoculation ([2]; 400 mg/ml, <1 min): 1.0 × 10^5 CFUs per ml
- Number of CFUs per ml - Time after Inoculation ([3]; 10 mg/ml, 6 h): 4.0 × 10^4 CFUs per ml
- Number of CFUs per ml - Time after Inoculation ([3]; 10 mg/ml, 24 h): 4.0 × 10^2 CFUs per ml
- Number of CFUs per ml - Time after Inoculation ([3]; 10 mg/ml, 48 h): 3.5 × 10^2 CFUs per ml
- Number of CFUs per ml - Time after Inoculation ([3]; 10 mg/ml, 7 days): ≦10 CFUs per ml
- Number of CFUs per ml - Time after Inoculation ([3]; 10 mg/ml, 14 days): <1 CFUs per ml
- Number of CFUs per ml - Time after Inoculation ([3]; 10 mg/ml, 21 days): <1 CFUs per ml
- Number of CFUs per ml - Time after Inoculation ([3]; 10 mg/ml, 28 days): <1 CFUs per ml
- Number of CFUs per ml - Time after Inoculation ([3]; 10 mg/ml, <1 min): 1.5 × 10^6 CFUs per ml
- Number of CFUs per ml - Time after Inoculation ([3]; 400 mg/ml, 6 h): 1.4 × 10^1 CFUs per ml
- Number of CFUs per ml - Time after Inoculation ([3]; 400 mg/ml, 24 h): <1 CFUs per ml
- Number of CFUs per ml - Time after Inoculation ([3]; 400 mg/ml, 48 h): <1 CFUs per ml
- Number of CFUs per ml - Time after Inoculation ([3]; 400 mg/ml, 7 days): <1 CFUs per ml
- Number of CFUs per ml - Time after Inoculation ([3]; 400 mg/ml, 14 days): <1 CFUs per ml
- Number of CFUs per ml - Time after Inoculation ([3]; 400 mg/ml, 21 days): <1 CFUs per ml
- Number of CFUs per ml - Time after Inoculation ([3]; 400 mg/ml, 28 days): <1 CFUs per ml
- Number of CFUs per ml - Time after Inoculation ([3]; 400 mg/ml, <1 min): 1.1 × 10^4 CFUs per ml
- Reduction in colony forming units per ml (CFU/ml) ([3]; 400 mg/ml, within 6 hours): ≥ 10^3 fold
- Number of CFUs per ml - Time after Inoculation ([4]; 10 mg/ml, 6 h): 1.5 × 10^3 CFUs per ml
- Number of CFUs per ml - Time after Inoculation ([4]; 10 mg/ml, 24 h): <1 CFUs per ml
- Number of CFUs per ml - Time after Inoculation ([4]; 10 mg/ml, 48 h): <1 CFUs per ml
- Number of CFUs per ml - Time after Inoculation ([4]; 10 mg/ml, 7 days): <1 CFUs per ml
- Number of CFUs per ml - Time after Inoculation ([4]; 10 mg/ml, 14 days): <1 CFUs per ml
- Number of CFUs per ml - Time after Inoculation ([4]; 10 mg/ml, 21 days): <1 CFUs per ml
- Number of CFUs per ml - Time after Inoculation ([4]; 10 mg/ml, 28 days): <1 CFUs per ml
- Number of CFUs per ml - Time after Inoculation ([4]; 10 mg/ml, <1 min): 3.5 × 10^5 CFUs per ml
- Number of CFUs per ml - Time after Inoculation ([4]; 400 mg/ml, 6 h): 8.7 × 10^1 CFUs per ml
- Number of CFUs per ml - Time after Inoculation ([4]; 400 mg/ml, 24 h): <1 CFUs per ml
- Number of CFUs per ml - Time after Inoculation ([4]; 400 mg/ml, 48 h): <1 CFUs per ml
- Number of CFUs per ml - Time after Inoculation ([4]; 400 mg/ml, 7 days): <1 CFUs per ml
- Number of CFUs per ml - Time after Inoculation ([4]; 400 mg/ml, 14 days): <1 CFUs per ml
- Number of CFUs per ml - Time after Inoculation ([4]; 400 mg/ml, 21 days): <1 CFUs per ml
- Number of CFUs per ml - Time after Inoculation ([4]; 400 mg/ml, 28 days): <1 CFUs per ml
- Number of CFUs per ml - Time after Inoculation ([4]; 400 mg/ml, <1 min): 1.1 × 10^5 CFUs per ml
- Reduction in colony forming units per ml (CFU/ml) ([4]; 400 mg/ml, within 6 hours): ≥ 10^3 fold
